Results from patent US7321046B2, “Analogs of dictyostatin, intermediates therefor and methods of synthesis thereof” (University of Pittsburgh, priority 2002, dated 2008).
Like-named read-outs stand apart in the source and are kept apart here.

Assays:
[1] = tested on: microtubules (tubulin polymer); test: Radiolabeled ligand binding assays; conditions: test agent 4 μM; radiolabel 4.0 μM; 37° C.
Experimental: The abilities of test agents to inhibit the binding of radiolabeled forms of the microtubule stabilizers paclitaxel, discodermolide and epothilone B from tubulin polymer were determined.
[^3H]Paclitaxel, [^3H]discodermolide and [^14C]epothilone B solutions were prepared as 125 μM stock solutions in 50% DMSO. Radiolabeled compound (final concentration, 4.0 μM) and test agents at final concentrations noted in the text and tables were mixed in 50 μL of 4:1 (v/v) 0.75 M aqueous MSG/DMSO and warmed to 37° C. Meanwhile, a reaction mixture containing 0.75 M MSG, 2.5 μM tubulin, and 25 μM ddGTP was prepared and incubated at 37° C. for 30 min to form microtubuless. A 200 μL aliquot of the microtubule mixture was added to the drug mixtures, and incubation continued for 30 min at 37° C. Reaction mixtures were centrifuged in an Eppendorf 5417C centrifuge at 14,000 rpm for 20 min at room temperature. Radiolabel in the supernatants (100 μL) was determined by scintillation spectrometry.

[2] = tested on: human ovarian carcinoma cells (1A9); test: Antiproliferative assay (GI50, MTS); assay type: cell-based; conditions: for antiproliferative potency / GI50 values (in words): Table 1 (1A9 and mutant lines)
Experimental: (§1) Representative analogs were examined for their antiproliferative activities against human ovarian carcinoma 1A9 cells and their paclitaxel-resistant mutants, 1A9/Ptx10 and 1A9/Ptx22.
[…] Cells were maintained in RPMI medium with 10% FBS in it, plated in tissue culture plates, and allowed to grow for 48-72 h before transferring them into 96-well plates. Cells were allowed to attach and grow for 48 h in 96-well plates after which they were treated with either control (DMSO) or drug in triplicate/quadruplicate. Cells were incubated with the compounds for 72 h. Cells were treated with MTS reagent before reading the plate in a Dynamax plate reader for determining the cell number. The fifty percent growth inhibition values (GI50 values) were calculated for the compounds against all the three cell lines.

HeLa cells = test: Multiparameter fluorescence high information content analysis of cellular effects; assay type: cell-based; design: unit not given here; conditions: 24 h treatment; for Minimum detectable cellular change, Nuclear condensation: Hoechst 33342
Experimental: HeLa cells were plated on collagen-coated 384-well microtiter plates, allowed to attach, then treated for 24 h with test agents. Test agent concentrations began at 1 μM, and two-fold dilutions were made to levels below 1 nM. After the treatment period, the cells were fixed with formalin and their chromatin stained with Hoechst 33342. Cells were permeabilized and treated with primary antibodies for α-tubulin and phosphohistone H3, and then with fluorophore-labeled secondary antibodies. The three fluorescent channels were then examined on an ArrayScan II, which gives quantitative pixel distribution and density information in each channel on a per cell basis.
HeLa cells growing at log phase were trypsinized and plated in 40 μL at a density of 7,000-8,000 cells per well in calf skin collagen I-coated 384-well plates (Falcon #3962; Fisher Scientific). Cells were exposed to test agents or 0.5% DMSO within 2-8 h of plating. Concentrated DMSO stock solutions of all test agents were diluted into solutions of HBSS medium plus 10% FBS and added to the microplate wells (10 μL per well), using an automated liquid handling system (Biomek® 2000; Beckman-Coulter, Inc.) to provide a serial 2-fold dilution of each test agent. The cells were incubated in the presence of test agents for 24 h. At the end of the incubation, the medium was removed and replaced with HBSS containing 4% formaldehyde and 10 μg/mL Hoechst 33342 (25 μL/well) to fix the cells and fluorescently label their chromatin. After incubation at room temperature for 20-30 min, the solution was removed from each well and replaced with HBSS (100 μL/well). Further reagent additions were made to the microplates using the Biomek 2000. After removing the HBSS from each well, cells were permeabilized for 5 min at room temperature with 0.5% (w/w) Triton X-100 in HBSS (10 μL/well). This step extracts a fraction of the soluble cellular components, including soluble tubulin. The wells were washed with HBSS (100 μL/well), followed by addition of a primary antibody solution containing mouse anti-α-tubulin (1:3000) and rabbit anti-phosphohistone H3 (1:500) in HBSS (10 μL/well). After 1 h at room temperature, the wells were washed with HBSS as above, followed by the addition of a secondary antibody solution containing fluorescein-5-isothiocyanate (FITC)-labeled donkey anti-mouse (1:300) and Cy3-labeled donkey anti-rabbit (1:300) antibodies diluted in HBSS (10 μL/well). After 1 h at room temperature, the wells were washed as above, and HBSS was added (100 μL/well). The plates were placed in an ArrayScan® HCS Reader with the Target Activation BioApplication Software coupled to Cellomics® Store and the vHCS™ Discovery Toolbox (Cellomics, Inc.) to analyze images. Briefly, the instrument was used to scan multiple optical fields, each with multiparameter fluorescence, within a subset of the wells of the 384-well microplate. The BioApplication software produced multiple numerical feature values, such as subcellular object intensities, shapes, and location for each cell within an optical field. […] A nuclear mask was generated from Hoechst 33342-stained nuclei, and object identification thresholds and shape parameters were set such that the algorithm identified over 90% of the nuclei in each field. Objects that touched each other or the edge of the image were excluded from the analysis. Tubulin mass was defined as the average green (FITC) pixel intensity in an area defined by the Hoechst-defined nuclear mask. This cytoplasmic area around the nucleus contains cytoskeletal components is a region from which sensitive measurements of cytoplasmic characteristics can be made.

Bovine brain tubulin = tested on: T1, Bovine brain tubulin; test: Pelleting assay (tubulin assembly EC50 determination); assay type: biochemical; conditions: tubulin 10 μM in 0.2 M MSG, 15 min at 20° C.; for EC50: concentration required to polymerize 50% of tubulin, read-out: EC50 (μM) ± SD (N)
T1 construct: Bovine brain tubulin (10 μM) in 0.2 M MSG, 15 min at 20° C
Experimental: Dictyostatin and representative analogs were evaluated in a quantitative assay for their ability to promote tubulin polymerization. […] When the percent polymer formed was determined in the reactions, a comparison of the activities of all the analogs could be made.
The assay was performed under three different reaction conditions following the procedure reported earlier (Gapud et al., 2004). Reaction condition 1 included 0.2 M monosodium glutamate (MSG), 10 μM tubulin, 5% DMSO and varying concentrations of test agents. Reaction condition 2 included 0.8 M MSG, 400 μM GTP, 10 μM tubulin, 5% DMSO, and varying concentrations of test agents. Reaction condition 3 had 0.6 M MSG, 200 μM GTP, and 10 μM tubulin, and 5% DMSO, and varying concentrations of the test agents. The experimental protocol for all the three reaction conditions was the following. The reaction mixtures were incubated at room temperature (20-22° C.) for 15 min and spun for 10 min at 14,000 rpm in an Eppendorf microtube centrifuge. Aliquots of the supernatants were removed and assayed for protein content by the method of Lowry.

[3] = tested on: 1A9/Ptx22 (Ala364 −> Thr) β-tubulin mutant cells; test: Antiproliferative assay (GI50, MTS), paclitaxel-resistant clone; assay type: cell-based, human; conditions: for fold-resistance: 1A9/Ptx22 versus parental 1A9
Experimental: as §1
(§2) The effects of dictyostatin and its analogs on growth inhibition of parental ([…]) and paclitaxel-resistant (1A9/Ptx10 and Ptx22) ovarian adenocarcinoma cell lines were evaluated following the antiproliferative assay protocol as described earlier (Minguez et al., 2003; Choy et al., 2003; Lazo et al., 2001). Cells were maintained in RPMI medium with 10% FBS in it, plated in tissue culture plates, and allowed to grow for 48-72 h before transferring them into 96-well plates. Cells were allowed to attach and grow for 48 h in 96-well plates after which they were treated with either control (DMSO) or drug in triplicate/quadruplicate. Cells were incubated with the compounds for 72 h. Cells were treated with MTS reagent before reading the plate in a Dynamax plate reader for determining the cell number. The fifty percent growth inhibition values (GI50 values) were calculated for the compounds against all the three cell lines.

[4] = tested on: 1A9/Ptx10 (Phe270 −> Val) β-tubulin mutant cells; test: as above; assay type: cell-based, human; conditions: for fold-resistance: 1A9/Ptx10 versus parental 1A9
Experimental: as §1, §2

[5] = read-out: GI50 ± S.D., 1A9 parental cells, 72 h incubation
[6] = read-out: GI50 ± S.D., 1A9/Ptx22 (Ala364 −> Thr), 72 h incubation
[7] = read-out: GI50 ± S.D., 1A9/Ptx10 (Phe270 −> Val), 72 h incubation
[8] = Homo sapiens, Ovarian carcinoma cell, 72 h, read-out: GI50 ± S.D., 1A9 parental cells, 72 h incubation
[9] = Homo sapiens, 1A9/ptx-22, 72 h, read-out: GI50 ± S.D., 1A9/Ptx22 (Ala364 −> Thr), 72 h incubation
[10] = Homo sapiens, 1A9/ptx-10, 72 h, read-out: GI50 ± S.D., 1A9/Ptx10 (Phe270 −> Val), 72 h incubation

| SMILES | Percent inhibition of radiolabel from microtubules, [3H]Discodermolide [1] | Percent inhibition of radiolabel from microtubules, [3H]Paclitaxel [1] | Percent inhibition of radiolabel from microtubules, [14C]Epothilone B [1] | antiproliferative potency / GI50 values (in words) [2] | GI50 [2, 5] | Minimum detectable cellular change, Phosphohistone H3 (HeLa cells) | Minimum detectable cellular change, Tubulin polymer intensity (HeLa cells) | Minimum detectable cellular change, Nuclear condensation (HeLa cells) | % Tubulin polymerized by 50 μM test agent (Bovine brain tubulin) | EC50 (Bovine brain tubulin) | fold-resistance [3] | GI50 [3, 6] | fold-resistance [4] | GI50 [4, 7] | GI50 [2, 8] | GI50 [3, 9] | GI50 [4, 10] |
| --- | --- | --- | --- | --- | --- | --- | --- | --- | --- | --- | --- | --- | --- | --- | --- | --- | --- |
| C/C(=C\c1csc(C)n1)[C@@H]1C[C@@H]2O[C@]2(C)CCC[C@H](C)[C@H](O)[C@@H](C)C(=O)C(C)(C)[C@@H](O)CC(=O)O1 [epothilone B] | 14 ± 3% |  |  |  |  |  |  |  |  |  |  |  |  |  |  |  |  |
| CC(=O)O[C@@]12CO[C@@H]1C[C@H](O)[C@@]1(C)C(=O)[C@H](O)C3=C(C)[C@@H](OC(=O)[C@H](O)[C@@H](NC(=O)OC(C)(C)C)c4ccccc4)C[C@@](O)([C@@H](OC(=O)c4ccccc4)[C@H]21)C3(C)C [docetaxel] | 8 ± 6 (3) % | 63 ± 8 (4) % | 36 ± 1 (3) % |  |  |  |  |  |  |  |  |  |  |  |  |  |  |
| C=CC=CC(C)C1OC(=O)C=CC=CC(C)C(O)CC(O)C=CC(C)C(O)C(C)CC(C)CCC(O)C1C [Compound 100, 8(S),10(S),14(R),20(R)-Tetrahydroxy-7(S),13(S),15(R),17(S),21 (S)-pentamethyl-22(S)-(1(S)-methyl-penta-2,4-dienyl)-oxa-cyclodocosa-3(E),5(E),11(Z)-trien-2-one] |  | 0 ± 1% |  | high nanomolar GI50 values | 0.31 ± 0.04 µM | >5000 (4) | >5000 (4) | >5000 (4) | 1 ± 1% | > 50 µM | 2.5 fold | 0.79 ± 0.56 µM | 2.5 fold | 0.78 ± 0.2 µM |  |  |  |
| C=CC=CC(C)C1OC(=O)C=CC=CC(C)C(O)CC(O)C=CC(C)C(O)C(C)CC(C)CCC(O)C1C [Compound 109, 8(S),10(S),14(R),20(S)-Tetrahydroxy-7(S),13(S),15(R),17(S),21(S)-pentamethyl-22(S)-(1(S)-methyl-penta-2,4-dienyl)oxacyclodocosa-3(E),5(E),11(Z)-trien-2-one] |  | 0 ± 1% |  | mid micromolar GI50 values | 25 ± 2 µM | >5000 (4) | >5000 (4) | >5000 (4) | 5 ± 4% | > 50 µM | 1.2 fold | 30 ± 1 µM | 1 fold | 25 ± 1 µM |  |  |  |
| C/C(=C\c1csc(C)n1)[C@@H]1C[C@@H]2O[C@@H]2CCC[C@H](C)[C@H](O)[C@@H](C)C(=O)C(C)(C)[C@@H](O)CC(=O)O1 [epothilone A] | 6 ± 6 (3) % | 53 ± 4 (4) % | 25 ± 3 (3) % |  |  |  |  |  |  |  |  |  |  |  |  |  |  |
| C=C/C=C\[C@H](C)[C@H](O)[C@@H](C)[C@H](CC[C@H](C)C[C@@H](C)[C@@H](O[Si](C)(C)C(C)(C)C)[C@@H](C)/C=C\[C@H](C[C@H](O[Si](C)(C)C(C)(C)C)[C@@H](C)/C=C/C=C\C(=O)O)O[Si](C)(C)C(C)(C)C)O[Si](C)(C)C(C)(C)C [Compound 107, (2Z,4E,6S,7S,9S,10Z,12S,13R,14R,16S,19S,20R,21S,22S,23Z)-7,9,13,19-tetrakis(tert-Butyldimethylsilyloxy)-21-hydroxy-6,12,14,16,20,22-hexamethylhexacosa-2,4,10,23,25-pentaenoic acid] |  |  |  |  |  |  |  |  |  |  |  |  |  |  | > 0.5 µM | > 0.5 µM | > 0.5 µM |
| C=CC=CC(C)C1OC(=O)C=CC=CC(C)C(O)CC(O)C=CC(C)C(O)C(C)CC(C)CCC(O)C1C [Compound 108, 8(S),10(S),14(R),20(S)-Tetrahydroxy-7(S),13(S),15(R),17(S),21(S)-pentamethyl-22(S)-(1(S)-methyl-penta-2,4-dienyl)oxacyclodocosa-3(Z),5(E),11(Z)-trien-2-one] |  | 0 ± 1% |  | mid micromolar GI50 values |  | >5000 (4) | >5000 (4) | >5000 (4) | 5 ± 1% | > 50 µM | 1.1 fold |  | 0.9 fold |  | 28 ± 1 µM | 30 ± 1 µM | 26 µM |
